In US20230341377A1, “DISCONNECTION AGENTS” (DC Europa Limited, priority 2020, published 2023):

Legend:
[1] = test system: Hs578T cells; experiment: SMS assay in Hs578T cells; format: cell-based, human; conditions: versus vehicle and PMA (5 nM), FIG. 2A, 2B, 2D, 2E
From the text: The SMS assay was developed to assess the transfer of cell dye (for example the acetoxymethyl [AM]-based Calcein AM), between cancer cells. The SMS assay can be applied to any cell lines forming tumour networks such as tumour microtubes (TM) or tunneling nanotubes (TNT), which enable the transfer of molecules across cells. The SMS assay can be used to assess networking capabilities of any cancer cell lines including HepG2 hepatocellular carcinoma cells, Hs578T cell line for human breast cancer, and U373 cell line for human glioblastoma.
The SMS assay is illustrated in FIG. 1. For the SMS assay, two sets of cells are stained with the cell dye of choice and a customary cell tracker dye (for example cell tracker blue) using established staining techniques (steps 1 and 2). Each set of cells are then co-incubated with the compound of interest to assess its capabilities to modulate the cells small molecule sharing characteristics (step 3). Then the two sets of cells are combined on a plate, for example at a ratio of 1:1, and cultured in the presence of the compound of interest (Step 4).
Finally, live cells are evaluated for viability and analyzed by flow cytometry for the uptake of cell dye in the […] cells (Step 5). The comparison of cell tracker uptake against positive and negative control enables the assessment of the compound's ability to modulate the tumour networks including those formed by TM and TNTs
The SMS assay has been applied to assess the modulation of network sharing capabilities of Protein Kinase C Modulators (PKCm) at various concentrations in the Hs578 cell line for human breast cancer, U373 cell line of human glioblastoma, and HepG2 hepatocellular carcinoma cells. PBS vehicle was used as negative control and the PKCm PHORBOL 12-MYRISTATE 13-ACETATE (PMA) at a concentration of 5 nM was used as the positive control.
FIG. 2A and FIG. 2B show the percentage of cell tracker cells that were accepting the cell dye transfer from separately stained donor cells according to the SMS assay of Example. The percentage of acceptor cells detected is shown in comparison to vehicle (upper horizontal line) and PMA at 5-10 nM concentration (lower horizontal line). Active PKCm in the SMS assay (FIG. 2A) show a decrease in acceptor cells relative to vehicle at certain concentration. […] The upper limit of the tested concentrations was determined as the maximal non-cytotoxic dose.

[2] = test system: patient-derived S24 glioblastoma model; experiment: Example 4: orthotopic S24 glioblastoma in mouse brain, TPPB and radiotherapy, in vivo MPLSM imaging; design: species or system NMRI nude mice; conditions: for tumour burden / tumour connectivity: TPPB 3 doses i.p. days 13, 14, 15 at 200 μg/kg
From the text: 8-10 weeks old male NMRI nude mice were used for all studies with human primary brain tumour cells. Cranial window implantation in mice was done in a modification of what has been previously described (see References), including a custom-made titanium ring for painless head fixation during imaging. 2-3 weeks after cranial window implantation, 30,000 tumour cells of the patient-derived S24 glioblastoma model were stereotactically injected into the mouse brain at a depth of 500 μm. Tumours were injected on day minus 35, i.e., 35 days before treatment start. Treatment was started on day 0.
Control animals (top row of FIG. 3) were untreated. TPPB continuous treatment (middle row) was administered intraperitoneally once per day on days 0 to 28 at variable daily doses ranging from 10 to 700 μg/kg. TPPB 3 doses (bottom row of FIG. 3) were administered intraperitoneally once per day on days 13, 14 and 15 at 200 μg/kg.
Tumours were irradiated with 7 Gy on three consecutive days (days 14, 15, 16, total dose 21 Gy) in regions matching in tumour cell density using a 6 MV linear accelerator with a 6 mm collimator (adjusted to the window size) at a dose rate of 3 Gy min^−1 (Faxitron MultiRad225). The used radiation schedule is in the range of the commonly prescribed 60 Gy in 2 Gy. fractions for malignant glioma patients, assuming an α/β of ˜10 in the linear quadratic model and taking into account the radiation time of 3 days.
MPLSM imaging was done with a Zeiss 7MP microscope (Zeiss) equipped with a Coherent Chameleon Ultrall laser (Coherent). MPLSM images were acquired by the ZEISS ZEN Software.
White to light gray areas of images in FIG. 3 depict S24 glioblastoma cells growing in the mouse brain. Black or dark gray areas depict vessels or background.

With `CC(C)[C@H]1C(=O)N[C@H](CO)Cc2cc(NC(=O)/C=C/C=C/c3ccc(C(F)(F)F)cc3)ccc2N1C` [TPPB, (2E,4E)-N-[(2S,5S)-1,2,3,4,5,6-Hexahydro-5-(hydroxymethyl)-1-methyl-2-(1-methylethyl)-3-oxo-1,4-benzodiazocin-8-yl]-5-[4-(trifluoromethyl)phenyl]-2,4-pentadienamide] as the compound, how does the “cell dye-sharing in the SMS assay (percentage of acceptor cells)” value [1] read?
The value was “inhibition of cell dye-sharing”.

What about the tumour burden ([2]; RTx 7 Gy days 14, 15, 16, day 28) of the same compound?
The tumour burden was “marked tumour regression”.

And the tumour connectivity ([2]; RTx, day 28)?
The tumour connectivity was “markedly reduced”.

What about the tumour burden ([2]; RTx, days 35 and 42) of the same compound?
Its tumour burden is “complete remission from the tumour burden”.

And the tumour connectivity ([2]; RTx, days 35 and 42)?
Its tumour connectivity is “completely disconnected”.

And the “tumour burden and connectivity versus control” value ([2]; TPPB continuous i.p. once per day days 0 to 28, 10 to 700 μg/kg, RTx 7 Gy days 14, 15, 16, days 0 to 35)?
The value was “no effect against control”.
